Measured values: patent US8674064B2, “Immunogenic compositions against human progastrin peptides” (Onkologix Ltd, priority 2010, dated 2014)
Ends that are not written are not given here.

What was measured:
huG17 [1] = experiment: ELISA antibody responses in mice after immunization with peptide-carrier conjugates; type: in vivo; conditions: three immunizations, FIG. 1
Description: FIG. 1 depicts antibody responses in mice as measured by ELISA and are in response to three immunizations with immunogens comprising each of the conjugates hG18-TT, hG18-DT, hG21-TT and hG21-DT (A, B, C and D, respectively).
(§1) The conjugate may be characterized as to immunomimic peptide content by a number of methods known to those skilled in the art including weight gain, amino acid analysis, etc. Conjugates of peptides G18 and G21 to TT produced by these methods were determined by amino acid analysis to have 10-30 moles of peptide per 104-106 MW of TT and all were considered suitable as immunogens for immunization of test animals. Similarly DT conjugates of G18 and G21, were prepared in the same manner to determine ELISA titers using huG17 as the substrate for assay of antibody binding.
The inventors constructed conjugates comprising each of the G18 and G21 peptides listed in Example 1 linked to TT and DT, as described in Examples 1 and 2. They then immunized six mice with the peptide G18 immunogen (FIGS. 1A, B) and six mice with the peptide G21 immunogen (FIGS. 1C, D).

huG17 [2] = experiment: ELISA antibody responses in rabbits after immunization with peptide-carrier conjugates; type: in vivo; conditions: one administration, FIG. 2
Description: FIG. 2 depicts antibody responses in rabbits, as measured by ELISA, with one administration of a conjugate constructed with peptide 1 (hG18-TT) and peptide 2 (hG21-TT) of Examples 1 and Example 2 below, per A and B, respectively.
as §1
The inventors constructed conjugates comprising each of the G18 and G21 peptides, supra, linked to TT and DT as described in Examples 1 and 2. They then immunized four rabbits with the G18 immunogen (FIG. 2A) and four rabbits with the G21 immunogen (FIG. 2B).

[3] = tested on: human gastric cancer cells (BCG-823); conditions: in vivo

pGlu-Gly-Pro-Trp-isoVal-Glu-Glu-Glu-Glu-Glu-Ala-Ser-Ser-Pro-Pro-Pro-pro-Cys (EGPWVEEEEEASSPPPPC; not fully specified (residues 1, 5, 17); printed as pGlu-Gly-Pro-Trp-isoVal-Glu-Glu-Glu-Glu-Glu-Ala-Ser-Ser-Pro-Pro-Pro-pro-Cys) [Peptide 2]
effective: potency, eliciting of antibody and duration of the antibody responses induced (ELISA) (huG17 [1]) | potency, eliciting of antibody and duration of the antibody responses induced (ELISA) (huG17 [2]) | antibody responses effective in the presence of conventional gastric cancer chemotherapies [3] | inhibiting the growth of human gastric cancer cells [3]

Cys-pro-Pro-Pro-Pro-Ser-Ser-Gly-Trp-Met-Asp-nPhe-Gly-Arg-Arg-Ser-Ala-Glu-Asp-Glu-Asn (CPPPPSSGWMDFGRRSAEDEN; not fully specified (residues 2, 12); printed as Cys-pro-Pro-Pro-Pro-Ser-Ser-Gly-Trp-Met-Asp-nPhe-Gly-Arg-Arg-Ser-Ala-Glu-Asp-Glu-Asn) [Peptide 1]
effective: potency, eliciting of antibody and duration of the antibody responses induced (ELISA) (huG17 [1]) | potency, eliciting of antibody and duration of the antibody responses induced (ELISA) (huG17 [2]) | antibody responses effective in the presence of conventional gastric cancer chemotherapies [3] | inhibiting the growth of human gastric cancer cells [3]
